Test results published in patent publication US20190362816A1, “Systems and Methods for Developing Covalent Inhibitor Libraries for Screening Using Virtual Docking and Experimental Approaches” (Northwestern University, priority 2016, published 2019).

Assays:
cysteine protease papain [1] = target: T1, cysteine protease papain (Carica papaya, UniProt P00784); details: J Med Chem. 2014, 57(11), 4969-74; cited from earlier work
T1 sequence (P00784 134-345): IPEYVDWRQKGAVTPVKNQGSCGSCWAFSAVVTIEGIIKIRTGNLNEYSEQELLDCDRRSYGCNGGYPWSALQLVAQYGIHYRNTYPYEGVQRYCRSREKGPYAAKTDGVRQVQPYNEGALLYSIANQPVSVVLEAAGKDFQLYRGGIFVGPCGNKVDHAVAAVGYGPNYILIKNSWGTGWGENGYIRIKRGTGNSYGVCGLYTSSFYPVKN

cysteine protease papain [2] = target: T1, cysteine protease papain; experiment: enzyme assay against cysteine protease papain (kinact/Ki); type: biochemical; details: covalent fragments of this work; J Med Chem. 2014, 57(11), 4969-74; read-out: Inhibitors of papain in this work, kinact/Ki
From the text: In a further embodiment, once the potential covalent inhibitor candidate libraries have been prepared, these candidates can be evaluated by dosing them in a specific assay at a specific concentration versus the receptor to determine the potency of each of the candidates. Depending on the covalent inhibitor, the receptor, and the therapeutic area, the assays will vary. Methods of performing wet chemistry assays are well known. Examples of covalent fragments evaluated in the enzyme assays against cysteine protease papain is shown below (J Med Chem. 2014 Jun. 12; 57(11):4969-74): […]

[3] = target: cysteine protease cathepsin L (Homo sapiens, UniProt P07711); experiment: cathepsin L assay using commercially available fluorescent substrates; type: biochemical
From the text: Experimental validation of identified inhibitors of cysteine protease cathepsin L. Identified covalent inhibitors (including 53) had been synthesized and tested in cathepsin L assays using commercially available fluorescent substrates for cathepsins (Calbiochem).

[4] = target: Cathepsin B cysteine protease (Homo sapiens, UniProt P07858); experiment: inhibition of related Cathepsin B cysteine protease; type: biochemical; details: selectivity versus cathepsin L

Sequence of cysteine protease cathepsin L (P07711 114-333): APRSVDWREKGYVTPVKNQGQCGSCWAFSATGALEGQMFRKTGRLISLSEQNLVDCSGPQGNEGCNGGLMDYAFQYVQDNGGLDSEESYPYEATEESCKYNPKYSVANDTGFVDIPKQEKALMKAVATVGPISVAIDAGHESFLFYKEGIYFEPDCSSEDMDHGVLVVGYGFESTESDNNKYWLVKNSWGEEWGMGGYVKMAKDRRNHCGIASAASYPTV

SMILES	Known inhibitors of papain, kinact/Ki (cysteine protease papain [1])	kinact/KI (cysteine protease papain [2])	also measured
COC(=O)/C=C/CNC(=O)[C@@H](CNC(C)=O)CC(C)C	1.102 M⁻¹ s⁻¹		
COC(=O)/C=C/CNC(=O)[C@@H](CNC(C)=O)Cc1ccccc1	6.575 M⁻¹ s⁻¹		
COC(=O)/C=C/CNC(=O)c1ccc(C2CCCO2)s1 (stereo not shown)		0.037 M⁻¹ s⁻¹	
COC(=O)/C=C/CNC(=O)C1CCN(C(=O)CC(C)C)CC1		0.461 M⁻¹ s⁻¹	
COC(=O)/C=C/CNC(=O)c1cc(-c2ccc(C)cc2)on1		1.23 M⁻¹ s⁻¹	
COC(=O)/C=C/CNC(=O)[C@H](CNC(C)=O)Cc1ccccc1	0.386 M⁻¹ s⁻¹		
COC(=O)/C=C/CNC(=O)c1sc(-c2ccccc2F)nc1C		0.409 M⁻¹ s⁻¹	
CC(Oc1ccc(Br)cc1Br)C(=O)NC/C=C/S(C)(=O)=O (racemic) [Compound 53]			kinact/KI ([3]; detailed kinetic analysis): 4.1 M⁻¹ s⁻¹; Ki ([3]; fluorescent substrates (Calbiochem)): 134 ± 2 µM; inhibition of Cathepsin B [4]: does not inhibit
